Assay results published in patent publication US20230331792A1, “NEW MULTI-FUNCTIONAL OLIGOPEPTIDES” (ENLITISA (SHANGHAI) PHARMACEUTICAL CO., LTD., priority 2019, published 2023).
Bridge positions count the residues as written; N and C are the ends. Square brackets hold non-standard residues; d marks the D form. Ends that are not written are not given here. I, II: the chains in the order shown. Dopa = N[C@@H](Cc1ccc(O)c(O)c1)C(=O)O; Hyp = O=C(O)[C@@H]1C[C@@H](O)CN1

Legend:
C57BL/6 mice = test: Air pouch model (carrageenan-induced acute inflammation); format: in vivo; parameters: key to Inflammation score / Edema score: 1 = mild, 2 = moderate, 3 = severe; conditions: dexamethasone 400 μg/mouse
Protocol: Healthy adult male C57BL/6 mice weighing between 20 and 30 g were supplied by Changzhou Cvens Experimental Animal Co. Ltd. Prior to any experiments being conducted, the mice were housed under standardized conditions (at a constant temperature or 22±2° C., with alternating 12-hour periods of light and darkness), and were fed on a standard mouse diet with water, for about a week. The mice were randomly divided into 9 groups as described in Table 4, with 7 mice in each group.
General anaesthesia was induced using intraperitoneal delivery of 3% chloral hydrate (Sinopharm Chemical Reagent Co., Ltd., Shanghai, China); 1 mL/10 g of body weight). The hair of the entire dorsum was shaved and depilated one day before sterile air injection.
Air pouches were produced by subcutaneous injection of sterile air (5 mL) into the intrascapular area of the mice. After three days, another injection of air (3 mL) was performed to maintain the pouches. In order to induce acute inflammation, three days after the second injection, animals received an injection of sterile carrageenan solution (CP Kelco, Taixing, Jiangsu Province, China; 1%, 0.5 mL; produced by adding 0.1 g of carrageenan powder into a beaker containing 10 mL of 0.9% saline solution and stirring). Mice were pre-treated with test samples or vehicle 1 hour before and 23 hours after the carrageenan injection into the subcutaneous air pouch. Animals were sacrificed 24 hours after the carrageenan injection.
Skin biopsies were taken from the air pouches. A part of the biopsy was fixed in formalin (produced by adding ultra-pure water to 50 mL of a 40% formaldehyde solution (Nanchang Rain Dew Experimental Equipment Co., Ltd., Nanchang, […] Provence, China) up to a total volume of 500 mL) and analyzed by histological embedding in paraffin wax, sectioning and staining.
The histological specimens were analyzed, and an inflammation score and an edema score were estimated. The inflammation scores were estimated by observing heamatoxylin and eosin (HE) stained slices under an optical microscope. Scores (between 1 to 3 points) were given according to the perceived inflammation level (e.g. in cases where only a small amount of inflammatory cells scattered in the area: 1 point was given (mild); in cases where many inflammatory cells were observed: 2 points were given (moderate); and, in cases with diffuse infiltration: 3 points were given (severe)). A similar scoring system was employed for edema levels (3 points for most severe and 1 point for mild) after overall observation.
After conducting some preliminary experiments to validate the model, an experiment was conducted in which mice were treated by administering test samples or vehicle in accordance with Table 4 below. Compound A and Compound B were dissolved in saline at concentrations indicated in Table 4 below (L=low dose, M=medium dose, H=high dose).
Compound A and Compound B were synthesized as described in Examples 8 and 7 above, respectively. The peptide powders were stored at −20° C. prior to use. Dexamethasone (Dex) was obtained from Shanghai Aladdin Bio-Chem Technology Co., Ltd., Shanghai, China.

person two = test: Ulcerative colitis, patient case; format: in vivo, human; conditions: oral 5-aminosalicylic acid for 3 days
Description: person two was diagnosed with an acute attack of ulcerative colitis. […] After this, they were given the same Compound C gel as described in Example 41 above, at the same dose, 3 times over the first two days. The frequent with which they had to go to the toilet reduced to 3 to 4 times a day.

in vivo = conditions: SD, rat
Protocol: The rats were treated by administering test samples.
The rats were anesthetized by 2% isoflurane inhalation. The rats were placed in the supine position, the rectum end stool was extruded and 75% alcohol cotton ball was used to disinfect the anal periphery skin area.
A 2 mL syringe was used to draw back the air bag cavity to ensure that there was no air in the air bag after water filling. The catheter (2-WAY 8Ch/Fr3-5 mm) was inserted into the rats anus at a depth of about 3 cm (2 cm length from the end of the balloon; the tip of the catheter was cut below the position of the urethral catheter tip, and shortened as much as possible while maintaining the integrity of the air cavity. The guide wire was removed, the urethral catheter was sealed with neutral glass glue while ensuring smooth sealing end to reduce the damage to the rectal mucosa).
While the perianal skin was held to fix the catheter and the gavage needle, 1 mL of water was injected with a 2 mL syringe into the airbag cavity in order to expand it, and the needle was then quickly released to observe whether there was gel leakage.
After injection, adhesive tape was wrapped around the tail root to fix the catheter (the catheter was litigated about 3-5 cm from the anus, then cut off after ligation, and an adhesive tape was wrapped around the tail root for fixation. The fixation of the pressure-sensitive adhesive tape is based on the standard of non-looseness of the urinary catheter, which should not be too tight and cause discomfort for animals to bite. The catheter should be fixed by tape twice: the catheter should be knotted the first time, while the remaining catheter should be fixed at the end of the tail the second time. The 3 cm scale on the catheter should be at the anus, and the catheter should not be taken out when the knot is tied). The rats were put back into the cage after administration.
An anal plug was maintained in the rectum for 4 h to extend the retention time of the drug in the animal body. The anal plug dropped within 4 h after the drug was administered, and the approximate time period of the drop was recorded.
Blood samples were processed by coating all centrifuge tubes with EDTA-K2 and storing them either in a refrigerator (2-8° C.) or a cooler filled with ice, protected from light prior to use; the blood that was collected was transferred into the centrifuge tubes and stored in ice box protected from light after having been mixed manually by reversing the tubes at least 5 times. The samples were subsequently centrifuged at 1800 g for 10 minutes at 2 to 8° C. within 2 hours from blood collection. After the centrifugation, the collected plasma samples were transferred into newly labeled centrifuge tubes, aliquoted into two sets, and stored below −70° C. away from light.
AUC, Cmax, Tmax, and any other parameters as needed, were calculated using WinNonlin software. Microsoft Office Excel was used for data statistical analysis, including mean, standard deviation (SD), and coefficient of variation (CV), etc. The difference in pharmacokinetic parameters between the two groups was compared.

[1] = Pharmacokinetics of montelukast with and without sMAP; conditions: SD, rat, plasma, 0.2 mg
SD rats = test: Experimental gastric ulcer model (anhydrous alcohol); format: in vivo; conditions: omeprazole 2 mg/mL, 4 mg/kg oral gavage once per day for 30 days
Protocol: SPF grade SD rats were used in this experiment, with 10 rats in each group. According to an evaluation method of health food for gastric ulcer issued by Chinese State Food and Drug Administration, the protective effect of Compound B on acute gastric ulcers induced by anhydrous alcohol was observed after continuous gavage for 30 days.
Omeprazole enteric-coated capsules (20 mg/capsule; Heilongjiang Norgas Pharmaceutical Co., Ltd., China) were opened and the powder was dissolved in water to make a 2 mg/mL solution. Compound B (see Example 7 above) powder was dissolved in water to make two solutions with concentrations of 0.25 mg/mL and 0.75 mg/mL. Administration volumes were […].
All drugs were administrated as shown in Table 13 by oral gavage for 30 consecutive days, once per day. The rats had free access to water. On the 30th day, rats were fasted for 24 hours after the last drug administration. On the 31st day, 1.0 mL/rat of absolute ethanol was given by gavage to each rat in all of the experimental groups except the control group.
1 hour later, all of the rats were sacrificed and dissected to expose the intact stomach, followed by ligation of the pylorus. 10% formaldehyde solution was administered into the stomach by perfusion and fixed for 20 minutes. The stomach was dissociated after fixation and cut open along the greater curvature. The stomach contents were washed off the lining with saline to reveal the gastric mucosa.
The length and width of gastric mucosal bleeding were measured with a Vernier calliper under a stereo microscope or by the naked eye.

[2] = system: Human Influenza A Virus H1N1; conditions: virus mixed with drug 1 hour, 2-128 μg/mL; Vero cells; viral RNA

With `C[C@@H]1C[C@H]2[C@@H]3CCC4=CC(=O)C=C[C@]4(C)[C@@]3(F)[C@@H](O)C[C@]2(C)[C@@]1(O)C(=O)CO` [Dex, Dexamethasone, reference compound] the “Sum of the scores” value (C57BL/6 mice) was 2.14, the Inflammation score (C57BL/6 mice; 1 h before and 23 h after carrageenan, histology, score 1-3) was 0.57 and the Edema score (C57BL/6 mice; histology, score 1-3) was 1.57.
For `Nc1ccc(O)c(C(=O)O)c1` [Mesalazine, 5-aminosalicylic acid], the “symptoms of ulcerative colitis” value (person two) was “symptoms did not change”, the AUC(0-t) (in vivo; female) was 38900 ng·h/mL and the Cmax (in vivo; female) was 13800 ng/mL. It also gave a Tmax (in vivo; female) of 1.83 h, an AUC(0-t) (in vivo; male) of 56100 ng·h/mL and a Cmax (in vivo; male) of 17500 ng/mL. For the same compound, the Tmax (in vivo; male) was 1.67 h.
Work on `CC(C)(O)c1ccccc1CC[C@@H](SCC1(CC(=O)O)CC1)c1cccc(/C=C/c2ccc3ccc(Cl)cc3n2)c1` [Montelukast, montelukast sodium] yielded an AUC(0-t) ([1]; female) of 229 ng·h/mL, a Cmax ([1]; female) of 156 ng/mL and a Tmax ([1]; female) of 30 min. The half-life ([1]; female) was 138 min, the AUC(0-t) ([1]; male) was 238 ng·h/mL and the Cmax ([1]; male) was 151 ng/mL. It also gave a Tmax ([1]; male) of 30 min and a half-life ([1]; male) of 108 min.
`COc1ccc2[nH]c([S+]([O-])Cc3ncc(C)c(OC)c3C)nc2c1` (centres unmarked) [Omeprazole, reference compound] showed a Damage score (SD rats) of 20.
In the case of “I: AKPS[Dopa][Hyp]T[Dopa][Hyp]KKK / II: AKPS[Dopa][Hyp]T[Dopa][Hyp]KK / III: AKPS[Dopa][Hyp]T[Dopa][Hyp]K / IV: AKPS[Dopa][Hyp]T[Dopa][Hyp]K (amide I:11-IV:C, I:12-II:C, II:11-III:C) [Compound C, [(Ala-Lys-Pro-Ser-DOPA-Hyp-Thr-DOPA-Hyp-Lys)2-Lys]2-Lys]”, the “IC50 (virus inhibition rate)” value [2] is reported as over 32 µg/mL.
